Assay results from patent US4374147A, “13-Oxo-monic acid esters useful as antibacterial and antimycoplasmal agents” (Beecham Group Limited, priority 1980, dated 1983).
Converted amounts (≈) assume the structure as drawn. Like-named read-outs stand apart in the source and are kept apart here.

Legend:
[1] = test system: Gram-positive and Gram-negative organisms; conditions: disclosed in earlier patents; cited from earlier work
[2] = test system: Haemophilus influenzae Q1; test: MIC by serial dilution in nutrient agar (human bacteria, Table 1); format: cell-based; conditions: Haemophilus influenzae Q1; nutrient agar, 5% "chocolated" horse blood; read-out: MIC
Strep.pyogenes A 64/848 = test: as above; format: cell-based; conditions: Streptococcus pyogenes, A64/848, 5% "chocolated" horse blood
[3] = test system: Neisseria flavesceus 8263; test: MIC by serial dilution in nutrient agar (human bacteria, Table 1, footnote a); format: cell-based
Source text: | ^ a Neisseria flavesceus 8263

Staph.aureus Oxford [4] = test: MIC by serial dilution in nutrient agar (human bacteria, Table 1); format: cell-based; conditions: Staphylococcus aureus
K. aerogenes A = test: as above; format: cell-based; conditions: Klebsiella aerogenes, 5% "chocolated" horse blood
E.coli NCTC 10418 [5] = test: as above; format: cell-based; conditions: Escherichia coli, NCTC10418, 5% "chocolated" horse blood
P. mirabilis 889 = test: as above; format: cell-based; conditions: Proteus mirabilis, 5% "chocolated" horse blood
[6] = test system: M.suipneumoniae J2206/183b; test: Anti-mycoplasmal MIC by serial dilution in Friis broth (Table 3); format: cell-based; conditions: Mesomycoplasma hyopneumoniae, read-out: in vitro MIC
Source text: (§1) *Determined by serial dilution in Friis broth (Friis N.F. 1975. Nord. Vet
(§2) Med. 27, 337) in microtiter plates using a modification of the metabolite
(§3) inhibition test (TaylorRobinson D. 1967. Postgrad. Med. J., 43, suppl.

M.pneumoniae 427a = test: as above; format: cell-based; conditions: Mycoplasmoides pneumoniae, read-out: in vitro MIC
Source text: as §1, §2, §3

M.dispar NCTC 10125 [7] = test: as above; format: cell-based; conditions: read-out: in vitro MIC
Source text: as §1, §2, §3

[8] = test system: Pasteurella multocida 1633; test: MIC by serial dilution in nutrient agar (human bacteria, Table 1); format: cell-based
Strep.faecalis I = test: as above; format: cell-based; conditions: Enterococcus faecalis, 5% "chocolated" horse blood
Staph.aureus Russell = test: as above; format: cell-based; conditions: Staphylococcus aureus
[9] = test system: Haemophilus influenzae Wy21; test: as above; format: cell-based; conditions: 5% "chocolated" horse blood
[10] = test system: Corynebacterium xerosis 9755; test: as above; format: cell-based; conditions: 5% "chocolated" horse blood
Strep.pyogenes C 2761 = test: as above; format: cell-based; conditions: Streptococcus pyogenes, C2761, 5% "chocolated" horse blood
Sarcina lutea 8340 = test: as above; format: cell-based; conditions: Micrococcus luteus, 5% "chocolated" horse blood
Strep.pyogenes B 2788 = test: as above; format: cell-based; conditions: Streptococcus pyogenes, B2788, 5% "chocolated" horse blood
Bacillus subtilis 6633 = test: as above; format: cell-based; conditions: 5% "chocolated" horse blood
E.coli ESS = test: as above; format: cell-based; conditions: Escherichia coli, 5% "chocolated" horse blood
Ps. aeruginosa 10662 = test: as above; format: cell-based; conditions: Pseudomonas aeruginosa, 5% "chocolated" horse blood
[11] = test system: Neisseria catarrhalis 1502; test: as above; format: cell-based; conditions: 5% "chocolated" horse blood
Staph. aureus W2827 = test: MIC by serial dilution in nutrient agar (human bacteria, Table 1, footnote b); format: cell-based; conditions: Staphylococcus aureus, Staph. aureus W2827 (footnote b, in line Staph.aureus 1517), 5% "chocolated" horse blood
M.hyosynoviae ATCC 25591 = test: Anti-mycoplasmal MIC in Friis broth solidified with agarose (Table 3); format: cell-based; conditions: 144 h, 6 days, 37° C., read-out: in vitro MIC
Experimental: (§4) ^+ Determined in Friis broth solidified with 0.9% agarose. The
(§5) inoculum was 10^3 to 10^5 C.F.U. MIC's were recorded after 6 days

[12] = test system: M.suipneumoniae J2206/183b; test: as above; format: cell-based; conditions: Mesomycoplasma hyopneumoniae, 144 h, 6 days, 37° C., read-out: in vitro MIC
Experimental: as §4, §5

M.bovis NCTC 10131 = test: as above; format: cell-based; conditions: NCTC10131, 144 h, read-out: in vitro MIC
Experimental: as §4, §5

M.suipneumoniae Str.11 = test: as above; format: cell-based; conditions: Mesomycoplasma hyopneumoniae, 144 h, 6 days, 37° C., read-out: in vitro MIC
Experimental: as §4, §5

[13] = test system: M.pneumoniae (Mac) ATCC 15492; test: as above; format: cell-based; conditions: Mycoplasmoides pneumoniae, ATCC15492, 144 h, 6 days, 37° C., read-out: in vitro MIC
Experimental: as §4, §5

M.dispar NCTC 10125 [14] = test: as above; format: cell-based; conditions: 144 h, 6 days, 37° C., read-out: in vitro MIC
Experimental: as §4, §5

M.hyorhinis ATCC 23234 = test: as above; format: cell-based; conditions: Mesomycoplasma hyorhinis, ATCC23234, 144 h, 6 days, 37° C., read-out: in vitro MIC
Experimental: as §4, §5

E.coli NCTC 10418 [15] = test: MIC by agar dilution (veterinary bacteria, Table 2); format: cell-based; conditions: Escherichia coli, NCTC10418, diagnostic sensitivity test agar, 24 hours, 37° C.
Experimental: (§6) The MIC values were determined by agar dilution using diagnostic sensitivity test agar (Oxoid) using a multipoint inoculator delivering 0.001 ml of an inoculum adjusted to give 10^7 -10^8 organisms per ml and read after 24 hours incubation at 37° C.

[16] = test system: Strep.suis (group D) SPS11; test: as above; format: cell-based; conditions: Streptococcus suis, diagnostic sensitivity test agar, 24 hours, 37° C.
Experimental: as §6

[17] = test system: Staph.aureus 152 (pen sens); test: as above; format: cell-based; conditions: Staphylococcus aureus, diagnostic sensitivity test agar, 24 hours, 37° C.
Experimental: as §6

Past.multocida PA2 = test: as above; format: cell-based; conditions: Pasteurella multocida, diagnostic sensitivity test agar, 24 hours, 37° C.
Experimental: as §6

Strep.agalactiae SPA1 = test: as above; format: cell-based; conditions: Streptococcus agalactiae, diagnostic sensitivity test agar, 24 hours, 37° C.
Experimental: as §6

[18] = test system: Erysipelothrix rhusiopathiae NCTC 8163; test: as above; format: cell-based; conditions: NCTC8163, diagnostic sensitivity test agar, 24 hours, 37° C.
Experimental: as §6

Past.haemolytica PA5 = test: as above; format: cell-based; conditions: Mannheimia haemolytica, diagnostic sensitivity test agar, 24 hours, 37° C.
Experimental: as §6

Strep.dysgalactiae SPD1 = test: as above; format: cell-based; conditions: Streptococcus dysgalactiae, diagnostic sensitivity test agar, 24 hours, 37° C.
Experimental: as §6

Bord.bronchiseptica BO8 = test: as above; format: cell-based; conditions: Bordetella bronchiseptica, diagnostic sensitivity test agar, 24 hours, 37° C.
Experimental: as §6

Bord.bronchiseptica BO9 = test: as above; format: cell-based; conditions: Bordetella bronchiseptica, diagnostic sensitivity test agar, 24 hours, 37° C.
Experimental: as §6

S.dublin S7 = test: as above; format: cell-based; conditions: Salmonella enterica, diagnostic sensitivity test agar, 24 hours, 37° C.
Experimental: as §6

Staph.aureus Oxford [19] = test: as above; format: cell-based; conditions: Staphylococcus aureus, diagnostic sensitivity test agar, 24 hours, 37° C.
Experimental: as §6

E.coli E1 = test: as above; format: cell-based; conditions: Escherichia coli, diagnostic sensitivity test agar, 24 hours, 37° C.
Experimental: as §6

[20] = test system: Corynebacterium pyogenes CY1; test: as above; format: cell-based; conditions: Trueperella pyogenes, diagnostic sensitivity test agar, 24 hours, 37° C.
Experimental: as §6

Strep.uberis SPU1 = test: as above; format: cell-based; conditions: Streptococcus uberis, diagnostic sensitivity test agar, 24 hours, 37° C.
Experimental: as §6

[21] = test system: Staph.aureus B4 (pen resis); test: as above; format: cell-based; conditions: Staphylococcus aureus, diagnostic sensitivity test agar, 24 hours, 37° C.
Experimental: as §6

Past.multocida PA1 = test: as above; format: cell-based; conditions: Pasteurella multocida, diagnostic sensitivity test agar, 24 hours, 37° C.
Experimental: as §6

S.typhimurium S18 = test: as above; format: cell-based; conditions: Salmonella enterica, diagnostic sensitivity test agar, 24 hours, 37° C.
Experimental: as §6

Strep.pneumoniae CN33 = test: MIC by serial dilution in nutrient agar (human bacteria, Table 1); format: cell-based; conditions: Streptococcus pneumoniae, 5% "chocolated" horse blood

SMILES: CC(=CC(=O)OCCCCCCCCC(=O)O)CC1OCC(CC2OC2C(C)C(C)O)C(O)C1O (centres unmarked) [Pseudomonic acid]
- antibacterial activity [1]: having antibacterial activity

SMILES: COC(=O)CCCCCCCCOC(=O)/C=C(\C)CC1OCC(CC2OC2C(C)C(C)=O)C(O)C1O (centres unmarked) [Example 1, Methyl 13-Oxopseudomonate A]
- MIC [2]: 0.5 µg/mL (≈ 0.975 µM)
- MIC (Strep.pyogenes A 64/848): 0.5 µg/mL (≈ 0.975 µM)
- MIC [3]: 1 µg/mL (≈ 1.95 µM)
- MIC (Staph.aureus Oxford [4]; Staph.aureus Oxford, nutrient agar, 5% "chocolated" horse blood, read-out: MIC): 0.5 µg/mL (≈ 0.975 µM)
- MIC (K. aerogenes A): > 200 µg/mL
- MIC (E.coli NCTC 10418 [5]): > 200 µg/mL
- MIC (P. mirabilis 889): > 200 µg/mL
- MIC [6]: 62.5 µg/mL (≈ 122 µM)
- MIC (M.pneumoniae 427a): 250 µg/mL (≈ 488 µM)
- MIC (M.dispar NCTC 10125 [7]): 0.5 µg/mL (≈ 0.975 µM)
- MIC ([8]; Pasteurella multocida, 1633): 1 µg/mL (≈ 1.95 µM)
- MIC (Strep.faecalis I): > 200 µg/mL
- MIC (Staph.aureus Russell; Staph.aureus Russell, nutrient agar, 5% "chocolated" horse blood, read-out: MIC): 2 µg/mL (≈ 3.9 µM)
- MIC [9]: 0.5 µg/mL (≈ 0.975 µM)
- MIC [10]: > 200 µg/mL
- MIC (Strep.pyogenes C 2761): 2 µg/mL (≈ 3.9 µM)
- MIC (Sarcina lutea 8340): > 200 µg/mL
- MIC (Strep.pyogenes B 2788): 10 µg/mL (≈ 19.5 µM)
- MIC (Bacillus subtilis 6633): 0.5 µg/mL (≈ 0.975 µM)
- MIC (E.coli ESS): 2 µg/mL (≈ 3.9 µM)
- MIC (Ps. aeruginosa 10662): > 200 µg/mL

SMILES: CCOC(=O)C=C(C)CC1OCC(CC2OC2C(C)C(C)=O)C(O)C1O (centres unmarked) [Example 5, Ethyl 4-(5-(2,3-epoxy-4-methylhexan-5-onyl)-3,4-dihydroxytetrahydropyran-2-yl)-3-methylbut-2-enoate]
- MIC [2]: 1 µg/mL (≈ 2.7 µM)
- MIC [11]: 2.5 µg/mL (≈ 6.75 µM)
- MIC (Staph. aureus W2827): 5 µg/mL (≈ 13.5 µM)
- MIC (Strep.pyogenes A 64/848): 50 µg/mL (≈ 135 µM)
- MIC (Staph.aureus Oxford [4]): 5 µg/mL (≈ 13.5 µM)
- MIC (K. aerogenes A): > 100 µg/mL
- MIC (M.hyosynoviae ATCC 25591): 2.5 µg/mL (≈ 6.75 µM)
- MIC [12]: 5 µg/mL (≈ 13.5 µM)
- MIC (M.bovis NCTC 10131): 0.1 µg/mL (≈ 0.27 µM)
- MIC (M.suipneumoniae Str.11): 2.5 µg/mL (≈ 6.75 µM)
- MIC [13]: > 10 µg/mL
- MIC (M.dispar NCTC 10125 [14]): 1 µg/mL (≈ 2.7 µM)
- MIC (M.hyorhinis ATCC 23234): 5 µg/mL (≈ 13.5 µM)
- MIC (E.coli NCTC 10418 [5]): > 100 µg/mL
- MIC (P. mirabilis 889): 100 µg/mL (≈ 270 µM)
- MIC ([8]; Pasteurella multocida 1633, nutrient agar, 5% "chocolated" horse blood, read-out: MIC): 10 µg/mL (≈ 27 µM)
- MIC (Strep.faecalis I): > 100 µg/mL
- MIC (Staph.aureus Russell): 5 µg/mL (≈ 13.5 µM)
- MIC [9]: 1 µg/mL (≈ 2.7 µM)
- MIC (E.coli NCTC 10418 [15]): > 80 µg/mL
- MIC [16]: > 80 µg/mL
- MIC [17]: 0.625 µg/mL (≈ 1.69 µM)
- MIC (Past.multocida PA2): 0.625 µg/mL (≈ 1.69 µM)
- MIC (Strep.agalactiae SPA1): 20 µg/mL (≈ 54 µM)
- MIC [18]: > 80 µg/mL
- MIC (Past.haemolytica PA5): 10 µg/mL (≈ 27 µM)
- MIC (Strep.dysgalactiae SPD1): 20 µg/mL (≈ 54 µM)
- MIC (Bord.bronchiseptica BO8): > 80 µg/mL
- MIC (Bord.bronchiseptica BO9): 80 µg/mL (≈ 216 µM)
- MIC (S.dublin S7): > 80 µg/mL
- MIC (Staph.aureus Oxford [19]): 0.625 µg/mL (≈ 1.69 µM)
- MIC (E.coli E1): > 80 µg/mL
- MIC [20]: > 80 µg/mL
- MIC (Strep.uberis SPU1): 2.5 µg/mL (≈ 6.75 µM)
- MIC [21]: 0.625 µg/mL (≈ 1.69 µM)
- MIC (Past.multocida PA1): 2.5 µg/mL (≈ 6.75 µM)
- MIC (S.typhimurium S18): > 80 µg/mL
- MIC (Strep.pneumoniae CN33): 10 µg/mL (≈ 27 µM)
- MIC (Strep.pyogenes C 2761): 100 µg/mL (≈ 270 µM)
- MIC (Strep.pyogenes B 2788): 50 µg/mL (≈ 135 µM)
- MIC (Bacillus subtilis 6633): 10 µg/mL (≈ 27 µM)
- MIC (E.coli ESS): 10 µg/mL (≈ 27 µM)
- MIC (Ps. aeruginosa 10662): > 100 µg/mL
